{
  "source": "a polymer gas permeability compilation",
  "data": [
    {"units": {"CO2 permeability": "Barrer", "N2 permeability": "Barrer", "O2 permeability": "Barrer", "CH4 permeability": "Barrer", "H2 permeability": "Barrer"}, "values": [
      {"smiles": "*c1ccc(-c2ccc(N3C(=O)c4ccc(C(c5ccc6c(c5)C(=O)N(*)C6=O)(C(F)(F)F)C(F)(F)F)cc4C3=O)c(N)c2)cc1N", "note": "(repeat unit)", "CO2 permeability": 138, "N2 permeability": 5.2, "O2 permeability": 34},
      {"smiles": "*c1cccc(N2C(=O)c3ccc(C(c4ccc5c(c4)C(=O)N(*)C5=O)(C(F)(F)F)C(F)(F)F)cc3C2=O)c1C", "note": "(repeat unit)", "CH4 permeability": 0.88, "CO2 permeability": 36.2, "H2 permeability": 102, "N2 permeability": 1.89, "O2 permeability": 10.8},
      {"smiles": "*Sc1ccc(*)cc1", "note": "(repeat unit)", "CH4 permeability": 0.066, "CO2 permeability": 1.6, "N2 permeability": 0.046, "O2 permeability": 0.19},
      {"smiles": "*Nc1ccc(*)cc1OCC", "note": "(repeat unit)", "CO2 permeability": 2.22, "H2 permeability": 8.1, "N2 permeability": 0.107, "O2 permeability": 0.62},
      {"smiles": "*c1c(C)cc(-c2cc(C)c(N3C(=O)c4cc5c(cc4C3=O)C3(C)c4ccccc4C5(C)c4cc5c(cc43)C(=O)N(*)C5=O)c3ccccc23)c2ccccc12", "note": "(repeat unit)", "CH4 permeability": 187, "CO2 permeability": 3350, "H2 permeability": 2740, "N2 permeability": 158, "O2 permeability": 696},
      {"smiles": "*CC(*)C#N", "note": "(repeat unit)", "CO2 permeability": 0.0018, "N2 permeability": 0.00016, "O2 permeability": 0.00028},
      {"smiles": "*C(=C(*)c1ccc(C[Si](C)(C)C)cc1)c1ccccc1", "note": "(repeat unit)", "CH4 permeability": 120, "CO2 permeability": 640, "H2 permeability": 420, "N2 permeability": 44, "O2 permeability": 140},
      {"smiles": "*c1ccc(Oc2ccc(C3(c4ccc(Oc5ccc(N6C(=O)c7ccc(C(c8ccc9c(c8)C(=O)N(*)C9=O)(C(F)(F)F)C(F)(F)F)cc7C6=O)c(C)c5)cc4)c4ccccc4-c4ccccc43)cc2)cc1C", "note": "(repeat unit)", "CH4 permeability": 0.34, "CO2 permeability": 11.7, "H2 permeability": 47.3, "N2 permeability": 0.73, "O2 permeability": 3.62},
      {"smiles": "*C(C(=O)OC(C)C)C(*)C(=O)OC(C)CC", "note": "(repeat unit)", "H2 permeability": 51, "N2 permeability": 5, "O2 permeability": 12},
      {"smiles": "*CC=C(C*)[Si](C)(C)OC(C)C", "note": "(repeat unit)", "CH4 permeability": 3.1, "CO2 permeability": 23.2, "N2 permeability": 1.5, "O2 permeability": 6},
      {"smiles": "*CC(*)c1ccc([Si](C)(C)CCCC(F)(F)F)cc1", "note": "(repeat unit)", "CH4 permeability": 22, "CO2 permeability": 284, "H2 permeability": 109, "N2 permeability": 11.8, "O2 permeability": 38.1},
      {"smiles": "*C(=C(*)c1ccc(C(C)(C)C)cc1)c1ccccc1", "note": "(repeat unit)", "CO2 permeability": 6200, "N2 permeability": 930, "O2 permeability": 1710},
      {"smiles": "*c1ccc(Oc2ccc(C(*)(c3ccccc3)C(F)(F)F)cc2)cc1", "note": "(repeat unit)", "CH4 permeability": 0.65, "CO2 permeability": 17, "H2 permeability": 28, "N2 permeability": 0.69, "O2 permeability": 3.5},
      {"smiles": "*c1cc(C(c2ccc(O)c(N3C(=O)c4cc5c(cc4C3=O)C3(C)c4ccccc4C5(C)c4cc5c(cc43)C(=O)N(*)C5=O)c2)(C(F)(F)F)C(F)(F)F)ccc1O", "note": "(repeat unit)", "CH4 permeability": 0.565, "CO2 permeability": 35, "H2 permeability": 83.5, "N2 permeability": 1.2, "O2 permeability": 7.45},
      {"smiles": "*CC(*)[Si](C)(C)c1ccccc1", "note": "(repeat unit)", "CO2 permeability": 12.3, "N2 permeability": 0.45, "O2 permeability": 2.47},
      {"smiles": "*c1ccccc1Oc1ccc2ccccc2c1-c1c(Oc2ccccc2N2C(=O)c3ccc(C(c4ccc5c(c4)C(=O)N(*)C5=O)(C(F)(F)F)C(F)(F)F)cc3C2=O)ccc2ccccc12", "note": "(repeat unit)", "CH4 permeability": 0.07, "CO2 permeability": 4.88, "H2 permeability": 6.86, "N2 permeability": 0.13, "O2 permeability": 0.99},
      {"smiles": "*Oc1c(C)cc(C(C)(C)c2cc(C)c(Oc3ccc(C(=O)c4ccc(*)cc4)cc3)c(C)c2)cc1C", "note": "(repeat unit)", "CH4 permeability": 1.1, "CO2 permeability": 20, "H2 permeability": 52, "N2 permeability": 1.1, "O2 permeability": 5.6},
      {"smiles": "*CN1CN(*)c2cc3c(cc21)C1(C)CCC3(C)c2cc(*)c(*)cc21", "note": "(repeat unit)", "CH4 permeability": 222, "H2 permeability": 4440, "N2 permeability": 187, "O2 permeability": 933},
      {"smiles": "*C=C(*)C(C)(C)C", "note": "(repeat unit)", "CH4 permeability": 85, "CO2 permeability": 560, "N2 permeability": 43, "O2 permeability": 130},
      {"smiles": "*Oc1cc2c(cc1O*)C1(c3ccccc3-c3cc4c(cc31)Oc1c(C#N)c(*)c(*)c(C#N)c1O4)c1cc(C)c(C)cc1-2", "note": "(repeat unit)", "CH4 permeability": 563, "CO2 permeability": 7880, "H2 permeability": 4420, "N2 permeability": 341, "O2 permeability": 1390},
      {"smiles": "*c1ccc(C)c(-c2cc(C)c(-c3cc(*)ccc3C)cc2C)c1", "note": "(repeat unit)", "CH4 permeability": 1.9, "CO2 permeability": 62, "H2 permeability": 100, "N2 permeability": 2.4, "O2 permeability": 12},
      {"smiles": "*NCCCCCCCCCCC(*)=O", "note": "(repeat unit)", "CO2 permeability": 1, "H2 permeability": 2.63},
      {"smiles": "*c1cc(C)c(N2C(=O)c3ccc(C(c4ccc5c(c4)C(=O)N(*)C5=O)(C(F)(F)F)C(F)(F)F)cc3C2=O)c(C)c1", "note": "(repeat unit)", "CH4 permeability": 0.349, "CO2 permeability": 17.9, "N2 permeability": 0.499, "O2 permeability": 3.53},
      {"smiles": "*N=P(*)(C)C", "note": "(repeat unit)", "CO2 permeability": 29.4, "N2 permeability": 1.27, "O2 permeability": 3.53},
      {"smiles": "*c1ccc(C2(c3ccc(N4C(=O)c5ccc(C(c6ccc7c(c6)C(=O)N(*)C7=O)(C(F)(F)F)C(F)(F)F)cc5C4=O)cc3)c3cc(C(C)(C)C)ccc3-c3ccc(C(C)(C)C)cc32)cc1", "note": "(repeat unit)", "CH4 permeability": 14.6, "CO2 permeability": 271, "N2 permeability": 14.1},
      {"smiles": "*c1cccc(N2C(=O)c3ccc(C(=O)c4ccc5c(c4)C(=O)N(*)C5=O)cc3C2=O)c1", "note": "(repeat unit)", "CH4 permeability": 0.0086, "CO2 permeability": 0.428, "N2 permeability": 0.016, "O2 permeability": 0.112},
      {"smiles": "*c1ccc(S(=O)(=O)c2ccc(N3C(=O)c4ccc(-c5ccc6c(c5)C(=O)N(*)C6=O)cc4C3=O)cc2)cc1", "note": "(repeat unit)", "CH4 permeability": 0.0625, "CO2 permeability": 2.16, "H2 permeability": 11.3, "N2 permeability": 0.0499, "O2 permeability": 0.348},
      {"smiles": "*c1c(C)cc(-c2cc(C)c(N3C(=O)c4cc5c(cc4C3=O)C3(C(C)C)c4ccccc4C5(C(C)C)c4cc5c(cc43)C(=O)N(*)C5=O)c3ccccc23)c2ccccc12", "note": "(repeat unit)", "CH4 permeability": 190, "CO2 permeability": 2910, "H2 permeability": 2170, "N2 permeability": 145, "O2 permeability": 550},
      {"smiles": "*Oc1ccc2c(c1)-c1nc3cc(Oc4ccc5nc6n(c5c4)C(=O)c4cc(*)ccc4-6)ccc3n1C2=O", "note": "(repeat unit)", "H2 permeability": 6.88, "N2 permeability": 0.026, "O2 permeability": 0.22},
      {"smiles": "*c1cccc(C(c2cccc(N3C(=O)c4ccc(C(c5ccc6c(c5)C(=O)N(*)C6=O)(C(F)(F)F)C(F)(F)F)cc4C3=O)c2)(C(F)(F)F)C(F)(F)F)c1", "note": "(repeat unit)", "CH4 permeability": 0.08, "CO2 permeability": 5.1, "N2 permeability": 0.261, "O2 permeability": 1.8},
      {"smiles": "*CC(*)C(=O)OCCCCCCCCCCCCCC", "note": "(repeat unit)", "CH4 permeability": 65.1, "CO2 permeability": 297, "H2 permeability": 96.2, "N2 permeability": 22.1, "O2 permeability": 57.1},
      {"smiles": "*c1ccc(C(c2ccc(N3C(=O)c4ccc(C(=O)c5ccc6c(c5)C(=O)N(*)C6=O)cc4C3=O)cc2)(C(F)(F)F)C(F)(F)F)cc1", "note": "(repeat unit)", "CH4 permeability": 0.191, "CO2 permeability": 17.5, "H2 permeability": 30.8, "N2 permeability": 0.375, "O2 permeability": 2.18},
      {"smiles": "*Oc1ccc(C(C)(C)c2ccc(Oc3ccc(S(=O)(=O)c4ccc(*)c5ccccc45)cc3)cc2)cc1", "note": "(repeat unit)", "CH4 permeability": 0.08, "CO2 permeability": 4.7, "N2 permeability": 0.15, "O2 permeability": 1.2},
      {"smiles": "*/C=C/c1ccc(*)cc1[Si](CC)(CC)CC", "note": "(repeat unit)", "CO2 permeability": 24, "N2 permeability": 1.8, "O2 permeability": 6.6},
      {"smiles": "*c1ccc(Oc2ccc(N3C(=O)c4cc5c(cc4C3=O)S(=O)(=O)c3cc4c(cc3S5(=O)=O)C(=O)N(*)C4=O)cc2)cc1", "note": "(repeat unit)", "CH4 permeability": 0.18, "CO2 permeability": 9.6, "H2 permeability": 19, "N2 permeability": 0.27, "O2 permeability": 1.6},
      {"smiles": "*Oc1ccc(S(=O)(=O)c2ccc(Oc3ccc4ccc(*)cc4c3)cc2)cc1", "note": "(repeat unit)", "CH4 permeability": 0.05, "CO2 permeability": 1.8, "H2 permeability": 8.15, "N2 permeability": 0.0735, "O2 permeability": 0.5},
      {"smiles": "*Oc1ccc(S(=O)(=O)c2ccc(Oc3ccc(C4(c5ccc(*)c(C)c5)CCCCC4)cc3C)cc2)cc1", "note": "(repeat unit)", "CH4 permeability": 0.0393, "CO2 permeability": 1.4, "N2 permeability": 0.0569, "O2 permeability": 0.41},
      {"smiles": "*c1cccc(-c2cc(C)c(-c3cccc(*)c3C)cc2C)c1C", "note": "(repeat unit)", "CH4 permeability": 5.6, "CO2 permeability": 190, "H2 permeability": 210, "N2 permeability": 7.3, "O2 permeability": 32},
      {"smiles": "*c1ccc(C(C)(C)c2ccc(-n3c(=O)c4cc5c(=O)n(*)c(=O)c5cc4c3=O)cc2)cc1", "note": "(repeat unit)", "CH4 permeability": 0.901, "CO2 permeability": 26.9, "H2 permeability": 17, "N2 permeability": 1.5, "O2 permeability": 7.1},
      {"smiles": "*C/C(C)=C(\\C)C*", "note": "(repeat unit)", "CH4 permeability": 0.786, "CO2 permeability": 7.47, "H2 permeability": 17, "N2 permeability": 0.472, "O2 permeability": 2.1},
      {"smiles": "*Nc1c(C)cc(Cc2cc(C)c(NC(=O)c3ccc(Oc4cc(C(C)(C)C)c(Oc5ccc(C(*)=O)cc5)cc4C(C)(C)C)cc3)c(C(C)C)c2)cc1C(C)C", "note": "(repeat unit)", "CH4 permeability": 1.21, "CO2 permeability": 27, "N2 permeability": 1.18, "O2 permeability": 6.47},
      {"smiles": "*C(=C(*)c1ccc([Si](C)(C)CCCCCCCC)cc1)c1ccc(C(C)C)cc1", "note": "(repeat unit)", "CO2 permeability": 120, "N2 permeability": 9.1, "O2 permeability": 29},
      {"smiles": "*OC(=O)c1cccc(C(=O)Oc2ccc(C(C)(C)c3ccc(O*)c(C)c3)cc2C)c1", "note": "(repeat unit)", "CH4 permeability": 0.044, "CO2 permeability": 2.5, "N2 permeability": 0.076, "O2 permeability": 0.46},
      {"smiles": "*Nc1ccc(C(C)(C)c2ccc(NC(=O)c3ccc(Oc4cc(C(C)(C)C)c(Oc5ccc(C(*)=O)cc5)cc4C(C)(C)C)cc3)cc2)cc1", "note": "(repeat unit)", "CH4 permeability": 0.47, "CO2 permeability": 13, "N2 permeability": 0.46, "O2 permeability": 3.11}
    ]}
  ]
}
